The source of these data is patent US12653814B2, “Benzimidazolone-based cinnamamide derivative as TRPV1 antagonist and pharmaceutical composition for treatment or prevention of pain containing same as active ingredient” (JMACKEM CO., LTD, priority 2020, dated 2026).

Series [1] addresses T1, human TRPV1 (hTRPV1) (Homo sapiens, UniProt Q8NER1).
T1 construct: host or cells: HEK (PrecisION hTRPV1-HEK recombinant cell line)
Kind of series: Ca2+ influx assay, antagonism against capsaicin in hTRPV1-HEK recombinant cells. The class given is cell-based. The following applies: capsaicin 10 nM as activator, Fluo4-NW fluorescence, read-out: hTRPV1 IC50 [cap].

The nature of series [2]: Evaluation of bioavailability (BA), rat PK after intravenous and oral administration. Type of series: in vivo, SD rats. Particulars: male, SD, plasma, 10 mg/kg, read-out: Bioavailability F (%). The procedure: SD rats (Coatec, Hana Trading Co., Ltd., 7-8 weeks old, male, n=4, 250-300 g) were used for the experiment. The rats were bred in a small animal breeding room (experimental animal center) set at a temperature of 22±2° C., a relative humidity of 50±5%, an illumination time of 12 hours (08:00˜20:00), and an illumination intensity of 150 to 300 lux. Feed was fed freely during the entire test period, and RO water was provided freely. Before oral administration of the test substances (example compounds and comparative example compounds of the present invention), the rats were fasted for 16 hours.
The dosage of the example compounds and comparative example compounds of the present invention was 5 mg/kg when administered intravenously and 10 mg/kg when administered orally. For intravenous administration, a clear solution in which 10% DMSO, 10% Cremophor EL, and 80% PEG400 were dissolved was administered. For oral administration, a solution or suspension in which 10% DMSO and 10% Cremophor EL were dissolved in 80% DDW was administered.
After the intravenous or oral administration, blood was collected at 5 minutes, 15 minutes, 30 minutes, 1 hour, 2 hours, 4 hours, 6 hours and 8 hours, and the concentrations of the test substances (example compounds and comparative example compounds of the present invention) in plasma were measured by LC-MS/MS.
After adding 80 μl of acetonitrile (including internal standard) to 20 μl of plasma, centrifugation was performed for 5 minutes at 15,000 rpm at 4° C. with vortexing. The supernatant obtained after the centrifugation was analyzed by LC-MS/MS. For HPLC, Nexera XR system (Shimadzu, Japan) was used, and for mass spectrometer, TSQ vantage triple quadruple (Thermo, USA) was used.
The PK parameters were calculated with a non-compartmental analysis model using Phoenix WinNonlin 6.4 version (Pharsight, USA) program.
AUC was calculated using the linear trapezoidal rule in the rising plasma-level phase and the logarithmic trapezoidal rule in the declining phase.

The conditions of series [3]: even in the absence of partial agonism; cited from earlier work.
Series [4] has as its target T1, human TRPV1 (hTRPV1). Kind of series: Evaluation of human pH inhibitory activity in hTRPV1-HEK recombinant cells. The class given is cell-based. The following applies: inhibition of activation at final pH 6.0, test substance 3 μM.
For series [5] the following is noted: during clinical trials; cited from earlier work.

T1 sequence (Q8NER1 whole entry): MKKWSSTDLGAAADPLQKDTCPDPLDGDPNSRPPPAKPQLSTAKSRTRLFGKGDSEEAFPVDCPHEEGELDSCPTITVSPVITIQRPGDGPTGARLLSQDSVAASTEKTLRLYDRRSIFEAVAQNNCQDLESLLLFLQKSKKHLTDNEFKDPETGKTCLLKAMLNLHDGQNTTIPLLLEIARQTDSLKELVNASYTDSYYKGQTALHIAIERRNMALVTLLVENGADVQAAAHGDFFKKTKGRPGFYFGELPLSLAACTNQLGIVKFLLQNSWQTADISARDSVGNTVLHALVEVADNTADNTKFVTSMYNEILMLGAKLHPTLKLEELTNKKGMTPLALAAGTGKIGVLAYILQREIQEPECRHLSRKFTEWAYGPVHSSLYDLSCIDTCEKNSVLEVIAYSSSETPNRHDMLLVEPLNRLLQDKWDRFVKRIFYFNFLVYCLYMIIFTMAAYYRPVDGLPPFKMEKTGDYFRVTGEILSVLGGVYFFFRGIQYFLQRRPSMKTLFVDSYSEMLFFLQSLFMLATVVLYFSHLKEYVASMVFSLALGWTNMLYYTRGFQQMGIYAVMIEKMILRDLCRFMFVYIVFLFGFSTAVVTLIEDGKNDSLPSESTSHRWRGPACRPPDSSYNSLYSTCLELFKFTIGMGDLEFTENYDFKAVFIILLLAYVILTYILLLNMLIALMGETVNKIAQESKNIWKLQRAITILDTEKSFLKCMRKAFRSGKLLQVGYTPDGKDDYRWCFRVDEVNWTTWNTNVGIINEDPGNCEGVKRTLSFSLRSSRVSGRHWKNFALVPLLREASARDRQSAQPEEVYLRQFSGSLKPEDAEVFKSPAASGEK

Turning to `O=C(NCc1ccc(C(F)(F)F)nc1N1CCCC1)Nc1cccc2[nH]c(=O)[nH]c12` [Comparative Example 1, 1-(2-oxo-1,3-dihydrobenzimidazol-4-yl)-3-[[2-pyrrolidin-1-yl-6-(trifluoromethyl)-3-pyridyl]methyl]urea, reference compound], the IC50 on human TRPV1 (hTRPV1) [1] is 18.4 nM. The bioavailability in series [2] turned out to be 2.3%.

Consider `CC(C)Oc1nc(C(F)(F)F)ccc1CNC(=O)Nc1cccc2[nH]c(=O)[nH]c12` [Comparative Example 2, 1-[[2-isopropoxy-6-(trifluoromethyl)-3-pyridyl]methyl]-3-(2-oxo-1,3-dihydrobenzimidazol-4-yl)urea, reference compound], for which the half-maximal inhibitory concentration (IC50) on human TRPV1 (hTRPV1) [1] was found to be 23.4 nM. Also, in series [2], the bioavailability came to 1%.

Take `O=C(/C=C/c1ccc(C(F)(F)F)cc1N1CCCCC1)Nc1cccc2c1C[C@H](O)C2` [AMG8562]: in series [3], the “effect on body temperature” value was “cause hypothermia”.

Regarding `O=C(NCc1ccc(C(F)(F)F)nc1N1CCCCC1)Nc1cccc2[nH]c(=O)[nH]c12` [Comparative Example 3, 1-(2-oxo-1,3-dihydrobenzimidazol-4-yl)-3-[[2-(1-piperidyl)-6-(trifluoromethyl)-3-pyridyl]methyl]urea, reference compound], the IC50 at human TRPV1 (hTRPV1) [1] is 13.5 nM. In addition, the bioavailability in series [2] came to 3%.

Take `O=C(/C=C/c1ccc(C(F)(F)F)nc1N1CCCCC1)Nc1cccc2[nH]c(=O)[nH]c12` [Example 4, (E)-N-(2-oxo-2,3-dihydro-1H-benzo[d]imidazol-4-yl)-3-(2-(piperidin-1-yl)-6-(trifluoromethyl)pyridin-3-yl)acrylamide]: on human TRPV1 (hTRPV1) [1], the IC50 is 11.3 nM. For the same compound, the “hTRPV1 pH (%, 3 μM)” value on human TRPV1 (hTRPV1) [4] was determined as 49.86%. For the same compound, the bioavailability in series [2] amounted to 12.5%.

With `FC(F)(F)c1ccc(-c2cc(Nc3ccc4ncsc4c3)ncn2)c(NCC2CCCCC2)c1` [AMG7905], the “effect on body temperature” value in series [3] is reported as “cause hypothermia”.

On to `O=C(/C=C/c1ccc(C(F)(F)F)nc1N1CCCC1)Nc1cccc2[nH]c(=O)[nH]c12` [Example 3, (E)-N-(2-oxo-2,3-dihydro-1H-benzo[d]imidazol-4-yl)-3-(2-(pyrrolidin-1-yl)-6-(trifluoromethyl)pyridin-3-yl)acrylamide], for which the IC50 on human TRPV1 (hTRPV1) [1] turned out to be 15.7 nM. Besides, the “hTRPV1 pH (%, 3 μM)” value on human TRPV1 (hTRPV1) [4] is 52.56%. In addition, the bioavailability in series [2] was determined as 13.2%.

Take `CC(=O)Nc1nc2c(Oc3cc(-c4ccc(C(F)(F)F)cc4)ncn3)cccc2s1` [AMG 517]: the “subject's body temperature rose to” value in series [5] was 40.2 °C.

As for `CC(C)COc1nc(C(F)(F)F)ccc1/C=C/C(=O)Nc1cccc2[nH]c(=O)[nH]c12` [Example 10, (E)-3-(2-isobutoxy-6-(trifluoromethyl)pyridin-3-yl)-N-(2-oxo-2,3-dihydro-1H-benzo[d]imidazol-4-yl)acrylamide], on human TRPV1 (hTRPV1) [1], the concentration for half-maximal inhibition (IC50) was 13 nM. For the same compound, the “hTRPV1 pH (%, 3 μM)” value at human TRPV1 (hTRPV1) [4] is listed as 53.26%. In addition, the bioavailability in series [2] worked out at 25.9%.

As for `O=C(/C=C/c1ccc(C(F)(F)F)nc1OCC1CC1)Nc1cccc2[nH]c(=O)[nH]c12` [Example 13, (E)-3-(2-(cyclopropylmethoxy)-6-(trifluoromethyl)pyridin-3-yl)-N-(2-oxo-2,3-dihydro-1H-benzo[d]imidazol-4-yl)acrylamide], the IC50 at human TRPV1 (hTRPV1) [1] was found to be 13.7 nM. For the same compound, the “hTRPV1 pH (%, 3 μM)” value at human TRPV1 (hTRPV1) [4] is 30.67%. For the same compound, the bioavailability in series [2] was found to be 35.6%.

In general, IC50 refers to the concentration at which inhibition is half-maximal. The bioavailability is dose-corrected exposure relative to a reference, in per cent.
